In ChEMBL document CHEMBL5724806, “Unraveling interindividual differences and functional consequences of gut microbial metabolism of immunosuppressants” (2024):

Experiments:
Format in all cases: ADME
[1] = (§1) The drug is tested on the gut metagenome community of P-03 with ENA study accession number: PRJEB31790 for biotransformation under microaerobic condition. The drug concentrations were measured over 7 timepoints collected between 0 and 12 hours of incubation by liquid-chromatography-coupled mass spectrometry (LC–MS); parameters: dose 5 uM, timepoint 0, 0.75, 1.5, 3, 6, 9, 12 hours; settings: 5 µM
[2] = as §1, with “T-05” for “P-03”; parameters: dose 5 uM, timepoint 0, 0.75, 1.5, 3, 6, 9, 12 hours; settings: 5 µM
[3] = as §1, with “A-04” for “P-03”, “anaerobic” for “microaerobic”; parameters: dose 5 uM, timepoint 0, 0.75, 1.5, 3, 6, 9, 12 hours; settings: 5 µM
[4] = The drug is tested on Eubacterium eligens strain: DSM3376 for biotransformation under anaerobic condition. The drug concentrations were measured over 6 timepoints collected between 0 and 12 hours of incubation by liquid-chromatography-coupled mass spectrometry (LC–MS); parameters: dose 5 uM, timepoint 0, 1.5, 3, 6, 9, 12 hours; settings: lachnospira eligens, 5 µM
[5] = as §1, with “A-07” for “P-03”; parameters: dose 5 uM, timepoint 0, 0.75, 1.5, 3, 6, 9, 12 hours; settings: 5 µM
[6] = The drug is tested on Alloscardovia omnicolens strain: DSM21503 for biotransformation under microaerobic condition. The drug concentrations were measured over 6 timepoints collected between 0 and 12 hours of incubation by liquid-chromatography-coupled mass spectrometry (LC–MS); parameters: dose 5 uM, timepoint 0, 1.5, 3, 6, 9, 12 hours; settings: 5 µM
[7] = The drug is tested on Lactobacillus ruminis strain: ATCC25644 for biotransformation under microaerobic condition. The drug concentrations were measured over 6 timepoints collected between 0 and 12 hours of incubation by liquid-chromatography-coupled mass spectrometry (LC–MS); parameters: dose 5 uM, timepoint 0, 1.5, 3, 6, 9, 12 hours; settings: ligilactobacillus ruminis, 5 µM
[8] = The drug is tested on Prevotella copri strain: DSM18205 for biotransformation under anaerobic condition. The drug concentrations were measured over 6 timepoints collected between 0 and 12 hours of incubation by liquid-chromatography-coupled mass spectrometry (LC–MS); parameters: dose 5 uM, timepoint 0, 1.5, 3, 6, 9, 12 hours; settings: segatella copri, 5 µM
[9] = The drug is tested on Bacteroides stercoris strain: HM 1036 for biotransformation under anaerobic condition. The drug concentrations were measured over 6 timepoints collected between 0 and 12 hours of incubation by liquid-chromatography-coupled mass spectrometry (LC–MS); parameters: dose 5 uM, timepoint 0, 1.5, 3, 6, 9, 12 hours; settings: 5 µM
[10] = The drug is tested on Enterococcus faecalis strain: ATCC29212 for biotransformation under anaerobic condition. The drug concentrations were measured over 6 timepoints collected between 0 and 12 hours of incubation by liquid-chromatography-coupled mass spectrometry (LC–MS); parameters: dose 5 uM, timepoint 0, 1.5, 3, 6, 9, 12 hours; settings: 5 µM
[11] = The drug is tested on Actinomyces naeslundi strain: DSM43013 for biotransformation under microaerobic condition. The drug concentrations were measured over 6 timepoints collected between 0 and 12 hours of incubation by liquid-chromatography-coupled mass spectrometry (LC–MS); parameters: dose 5 uM, timepoint 0, 1.5, 3, 6, 9, 12 hours; settings: actinomyces naeslundii, 5 µM
[12] = as §1, with “T-03” for “P-03”, “anaerobic” for “microaerobic”; parameters: dose 5 uM, timepoint 0, 0.75, 1.5, 3, 6, 9, 12 hours; settings: 5 µM
[13] = as §1, with “T-01” for “P-03”; parameters: dose 5 uM, timepoint 0, 0.75, 1.5, 3, 6, 9, 12 hours; settings: 5 µM
[14] = The drug is tested on Lactobacillus gasseri strain: DSM20243 for biotransformation under anaerobic condition. The drug concentrations were measured over 6 timepoints collected between 0 and 12 hours of incubation by liquid-chromatography-coupled mass spectrometry (LC–MS); parameters: dose 5 uM, timepoint 0, 1.5, 3, 6, 9, 12 hours; settings: 5 µM
[15] = The drug is tested on Bifidobacterium adolescentis strain: DSM20083 for biotransformation under anaerobic condition. The drug concentrations were measured over 6 timepoints collected between 0 and 12 hours of incubation by liquid-chromatography-coupled mass spectrometry (LC–MS); parameters: dose 5 uM, timepoint 0, 1.5, 3, 6, 9, 12 hours; settings: 5 µM
[16] = The drug is tested on Streptococcus sanguinis strain: DSM20567 for biotransformation under microaerobic condition. The drug concentrations were measured over 6 timepoints collected between 0 and 12 hours of incubation by liquid-chromatography-coupled mass spectrometry (LC–MS); parameters: dose 5 uM, timepoint 0, 1.5, 3, 6, 9, 12 hours; settings: 5 µM
[17] = The drug is tested on Lactobacillus fermentum strain: DSM20052 for biotransformation under microaerobic condition. The drug concentrations were measured over 6 timepoints collected between 0 and 12 hours of incubation by liquid-chromatography-coupled mass spectrometry (LC–MS); parameters: dose 5 uM, timepoint 0, 1.5, 3, 6, 9, 12 hours; settings: limosilactobacillus fermentum, 5 µM
[18] = as §1, with “A-10” for “P-03”; parameters: dose 5 uM, timepoint 0, 0.75, 1.5, 3, 6, 9, 12 hours; settings: 5 µM
[19] = The drug is tested on Streptococcus mitis strain: DSM12643 for biotransformation under anaerobic condition. The drug concentrations were measured over 6 timepoints collected between 0 and 12 hours of incubation by liquid-chromatography-coupled mass spectrometry (LC–MS); parameters: dose 5 uM, timepoint 0, 1.5, 3, 6, 9, 12 hours; settings: 5 µM
[20] = as §1, with “A-06” for “P-03”; parameters: dose 5 uM, timepoint 0, 0.75, 1.5, 3, 6, 9, 12 hours; settings: 5 µM
[21] = The drug is tested on Coprococcus comes strain: ATCC27758 for biotransformation under anaerobic condition. The drug concentrations were measured over 6 timepoints collected between 0 and 12 hours of incubation by liquid-chromatography-coupled mass spectrometry (LC–MS); parameters: dose 5 uM, timepoint 0, 1.5, 3, 6, 9, 12 hours; settings: 5 µM
[22] = as §1, with “T-02” for “P-03”, “anaerobic” for “microaerobic”; parameters: dose 5 uM, timepoint 0, 0.75, 1.5, 3, 6, 9, 12 hours; settings: 5 µM
[23] = The drug is tested on Parabacteroides merdae strain: DSM19495 for biotransformation under anaerobic condition. The drug concentrations were measured over 6 timepoints collected between 0 and 12 hours of incubation by liquid-chromatography-coupled mass spectrometry (LC–MS); parameters: dose 5 uM, timepoint 0, 1.5, 3, 6, 9, 12 hours; settings: 5 µM
[24] = as §1, with “P-01” for “P-03”; parameters: dose 5 uM, timepoint 0, 0.75, 1.5, 3, 6, 9, 12 hours; settings: 5 µM
[25] = as §1, with “A-08” for “P-03”, “anaerobic” for “microaerobic”; parameters: dose 5 uM, timepoint 0, 0.75, 1.5, 3, 6, 9, 12 hours; settings: 5 µM
[26] = The drug is tested on Dorea formicigenerans strain: DSM3992 for biotransformation under anaerobic condition. The drug concentrations were measured over 6 timepoints collected between 0 and 12 hours of incubation by liquid-chromatography-coupled mass spectrometry (LC–MS); parameters: dose 5 uM, timepoint 0, 1.5, 3, 6, 9, 12 hours; settings: 5 µM
[27] = as §1, with “A-05” for “P-03”; parameters: dose 5 uM, timepoint 0, 0.75, 1.5, 3, 6, 9, 12 hours; settings: 5 µM
[28] = The drug is tested on Bacteroides caccae strain: DSM19024 for biotransformation under anaerobic condition. The drug concentrations were measured over 6 timepoints collected between 0 and 12 hours of incubation by liquid-chromatography-coupled mass spectrometry (LC–MS); parameters: dose 5 uM, timepoint 0, 1.5, 3, 6, 9, 12 hours; settings: 5 µM
[29] = The drug is tested on Capnocytophaga ochracea strain: DSM7271 for biotransformation under microaerobic condition. The drug concentrations were measured over 6 timepoints collected between 0 and 12 hours of incubation by liquid-chromatography-coupled mass spectrometry (LC–MS); parameters: dose 5 uM, timepoint 0, 1.5, 3, 6, 9, 12 hours; settings: 5 µM
[30] = The drug is tested on Clostridium scindens strain: DSM5676 for biotransformation under anaerobic condition. The drug concentrations were measured over 6 timepoints collected between 0 and 12 hours of incubation by liquid-chromatography-coupled mass spectrometry (LC–MS); parameters: dose 5 uM, timepoint 0, 1.5, 3, 6, 9, 12 hours; settings: 5 µM

Structure (SMILES) | Bacterial Biotransformation [1] | Bacterial Biotransformation [2] | Bacterial Biotransformation [3] | Bacterial Biotransformation [4] | Bacterial Biotransformation [5] | Bacterial Biotransformation [6] | Bacterial Biotransformation [7] | Bacterial Biotransformation [8] | Bacterial Biotransformation [9] | Bacterial Biotransformation [10] | Bacterial Biotransformation [11] | Bacterial Biotransformation [12] | Bacterial Biotransformation [13] | Bacterial Biotransformation [14] | Bacterial Biotransformation [15] | Bacterial Biotransformation [16] | Bacterial Biotransformation [17] | Bacterial Biotransformation [18] | Bacterial Biotransformation [19] | Bacterial Biotransformation [20] | further results
CCOC(=O)[C@H](CCc1ccccc1)N[C@@H](C)C(=O)N1[C@H](C(=O)O)C[C@@H]2CCC[C@@H]21 | Compound NOT metabolized | Compound NOT metabolized | Compound NOT metabolized | Compound NOT metabolized | Compound NOT metabolized | Compound NOT metabolized | Compound NOT metabolized | Compound NOT metabolized | Compound NOT metabolized | Compound NOT metabolized | Compound NOT metabolized | Compound NOT metabolized | Compound NOT metabolized | Compound NOT metabolized | Compound NOT metabolized | Compound NOT metabolized | Compound NOT metabolized | Compound NOT metabolized | Compound NOT metabolized | Compound NOT metabolized | Bacterial Biotransformation [21]: Compound NOT metabolized; Bacterial Biotransformation [22]: Compound NOT metabolized; Bacterial Biotransformation [23]: Compound NOT metabolized; Bacterial Biotransformation [24]: Compound NOT metabolized; Bacterial Biotransformation [25]: Compound NOT metabolized; Bacterial Biotransformation [26]: Compound NOT metabolized; Bacterial Biotransformation [27]: Compound NOT metabolized; Bacterial Biotransformation [28]: Compound NOT metabolized; Bacterial Biotransformation [29]: Compound NOT metabolized; Bacterial Biotransformation [30]: Compound NOT metabolized
CC(C)NCC(O)COc1ccc(CC(N)=O)cc1 (stereo not given) [ATENOLOL] | Compound NOT metabolized | Compound NOT metabolized | Compound NOT metabolized | Compound NOT metabolized | Compound NOT metabolized | Compound NOT metabolized | Compound NOT metabolized | Compound NOT metabolized | Compound NOT metabolized | Compound NOT metabolized | Compound NOT metabolized | Compound NOT metabolized | Compound NOT metabolized | Compound NOT metabolized | Compound NOT metabolized | Compound NOT metabolized | Compound NOT metabolized | Compound NOT metabolized | Compound NOT metabolized | Compound NOT metabolized | Bacterial Biotransformation [21]: Compound NOT metabolized; Bacterial Biotransformation [22]: Compound NOT metabolized; Bacterial Biotransformation [23]: Compound NOT metabolized; Bacterial Biotransformation [24]: Compound NOT metabolized; Bacterial Biotransformation [25]: Compound NOT metabolized; Bacterial Biotransformation [26]: Compound NOT metabolized; Bacterial Biotransformation [27]: Compound NOT metabolized; Bacterial Biotransformation [28]: Compound NOT metabolized; Bacterial Biotransformation [29]: Compound NOT metabolized; Bacterial Biotransformation [30]: Compound NOT metabolized
Cn1cnc([N+](=O)[O-])c1Sc1ncnc2nc[nH]c12 [AZATHIOPRINE] | Compound NOT metabolized | Compound NOT metabolized | Compound metabolized | Compound metabolized | Compound metabolized | Compound NOT metabolized | Compound metabolized | Compound metabolized | Compound metabolized | Compound metabolized | Compound NOT metabolized | Compound NOT metabolized | Compound NOT metabolized | Compound NOT metabolized | Compound metabolized | Compound NOT metabolized | Compound NOT metabolized | Compound NOT metabolized | Compound metabolized | Compound metabolized | Bacterial Biotransformation [21]: Compound metabolized; Bacterial Biotransformation [22]: Compound NOT metabolized; Bacterial Biotransformation [23]: Compound metabolized; Bacterial Biotransformation [24]: Compound NOT metabolized; Bacterial Biotransformation [25]: Compound metabolized; Bacterial Biotransformation [26]: Compound metabolized; Bacterial Biotransformation [27]: Compound metabolized; Bacterial Biotransformation [28]: Compound metabolized; Bacterial Biotransformation [29]: Compound metabolized; Bacterial Biotransformation [30]: Compound metabolized
